Assay results as given in patent publication US7390788B2, “Peptide pharmaceutical compositions” (priority 2005, dated 2008).
Where two headings read alike, the source gives them in different places.

Columns and labels:
[1] = DAPTA fibril formation / aggregation in solution by EM (Example 3); format: physicochemical
Procedure: Preparation of DAPTA solutions. DAPTA was dissolved in water, and solutions maintained at various temperatures and times. To prepare fibrils, DAPTA was prepared at 10 mgs/mL in water and stored overnight at 4° C.
Determining fibril formation.
In solution, DAPTA can be shown to form ordered aggregates by EM, FTIR, and CD and dye binding. Aggregation is promoted by concentration, increased ionic strength, and reduced temperature. Although the kinetics of aggregation appear to vary, from preparation to preparation, aggregation appears to be a property associated with all batches of DAPTA examined as measured by EM.
Fibrillization can be observed in solutions prepared in 0.9% saline (10 mg/mL) when stored at 4° C. in less than 1 hour. At room or ambient temperature, fibril formation can be observed within 48 hours, although there is variation from preparation to preparation. In distilled water, DAPTA solutions at 10 mg/ml readily form aggregates at 4 deg. C., within 2 hrs, and at room temperature, within 1-7 days.

HIV BaL = format: cell-based, HIV-1; conditions: dried
Procedure: Peptide was dissolved at 5 mg/ml in water, stored at ambient temperature, ca 23-27° C., and samples tested for biological activity in an HIV infection assay.
Inhibition of HIV infection is studied by utilizing an infection assay in which GHOST CD4 CCR5 cells are infected with HIV BaL, an R5 tropic isolate (Ruff, M R et al., 2001). Infection is detected via viral induction of the hGFP gene (green fluorescent protein) 48 hrs post-infection. Trays are measured in a plate reader to determine fluorescence intensity. All infections are performed by adding fresh culture medium containing approximately 1,000 infectious units of HIV-1 per well (96-well plates).
Samples were then aged by storage at ambient temperature (ca 25° C.) for 14 days prior to antiviral testing. […] In FIG. 5, only the short term 6 hour sample is stored at 4° C., while the other samples are stored at 37° C.
The peptide was dissolved in the indicated concentration of TFE in water and then shaken or agitated for 24 hrs at 37° C. The peptide was subsequently dried down, and the TFE/water mixture removed under vacuum. […] Although TFE is removed, residual traces of TFE within acceptable range for human consumption may remain.
Inhibition of HIV infection was studied by utilizing an infection assay using GHOST CD4 as previously described by Ruff, M R et al., 2001. CCR5 cells are infected with HIV BaL, an R5 tropic isolate. Infection is detected via viral induction of the hGFP gene (green fluorescent protein) about 48 hours post-infection. Trays were measured in a plate reader to determine fluorescence intensity. All infections were performed by adding fresh culture medium containing approximately 1,000 infectious units of HIV-1 per well (96-well plates).

HIV [2] = experiment: Inhibition of HIV infectivity in vitro by stored DAPTA solutions; format: cell-based
Procedure: Aggregation is discovered to be associated with a loss of biological activity in vitro. Typically, the recommended protocol is to have DAPTA stored at 0.1 mM solutions in water at 4° C.
Aggregation is reduced in the presence of trifluoroethanol (TFE). TFE was selected because of its property of reducing certain types of protein-protein interactions. DAPTA was dissolved in either distilled water, or solutions containing between 60% and 100% TFE. Aggregation was evaluated by assaying inhibition of HIV infectivity, in vitro. […] Also, TFE is capable of disassociating preformed aggregates of DAPTA. Aggregates of DAPTA, formed in distilled water were disrupted by addition of TFE to 80%, as measured by EM.

envelop (gp120) = conditions: 1987 report; cited from earlier work
[3] = Phase I, human; cited from earlier work
HIV [4] = conditions: cited from earlier work
[5] = 6 mg/day for 12 weeks; cited from earlier work
[6] = 2 mg three times daily intranasally, cited from earlier work
[7] = cited from earlier work
[8] = patients with moderate neuro-psychological impairment; cited from earlier work
[9] = subcutaneously, cited from earlier work
nasal mucosa = conditions: in vivo; cited from earlier work
isolated nasal cilia = conditions: cited from earlier work

D-ala^1-peptide T-amide [DAPTA]
Time until fibrillization can be observed ([1]; 0.9% saline, 10 mg/mL, 4° C.): less than 1 hour | Time until fibril formation can be observed ([1]; 0.9% saline, 10 mg/mL, room or ambient temperature): ≤ 48 h | Effect of TFE on preformed aggregates, by EM ([1]; aggregates formed in distilled water, TFE added to 80%): disrupted | Time until aggregates form ([1]; distilled water, 10 mg/ml, 4 deg. C.): ≤ 2 h | Percent Reduction in HIV Infection (HIV BaL; 0.1 nM DAPTA, TFE Concentration 40 %, shaken 24 hrs at 37° C., reconstituted in water, stored about 3 days): 0 ± 2% | Percent Reduction in HIV Infection (HIV BaL; 0.1 nM DAPTA, TFE Concentration 60 %, shaken 24 hrs at 37° C., reconstituted in water, stored about 3 days): 20 ± 4% | Percent Reduction in HIV Infection (HIV BaL; 0.1 nM DAPTA, TFE Concentration 100 %, shaken 24 hrs at 37° C., reconstituted in water, stored about 3 days): 98 ± 3% | Percent Reduction in HIV Infection (HIV BaL; 80% TFE, shaken 12 hrs at 37 degrees Celsius, in water about three days): 70 ± 4% | Percent Reduction in HIV Infection (HIV BaL; 80% TFE, shaken 48 hrs at 37 degrees Celsius, in water about three days): 100 ± 3% | Percent Reduction in HIV Infection (HIV BaL; 80% TFE, shaken about 24 hours at 37 ° C., in water about three days): 100 ± 5% | Percent Reduction in HIV Infection (HIV BaL; 80% TFE, shaken about 24 hours at Room Temp., in water about three days): 70 ± 6% | Storage time to substantial loss of activity (HIV uptake inhibition in vitro) (HIV [2]; 0.1 mM solutions in water at 4° C.): about 6 weeks | Activity retained on storage (inhibition of HIV infectivity in vitro) (HIV [2]; stored in TFE between 60% and 100% vs water): retained more activity | Concentration that blocks envelop (gp120) binding and inhibits viral infectivity (envelop (gp120)): 10 pM | Toxicity [3]: complete lack of toxicity | Virus levels in stored frozen plasma (HIV [4]; blind NIMH analysis): significant (p<0.04) treatment effect | Clinical benefits versus placebo (HIV [4]; more cognitively impaired patients): significant clinical benefits versus placebo | Treatment of painful peripheral neuropathy vs placebo [5]: no statistically significant differences | Neuropsychological performance vs placebo ([6]; at least four months of treatment): no difference | Neuropsychological improvement after adjustment for baseline CD4 count [6]: greater improvement (p=0.07) | Patients with improved neuro-psychological performance ([7]; high dose (15 mg daily)): 4/5 | Patients with improved neuro-psychological performance ([7]; low dose (1.5 mg daily)): 1/4 | Cognitive and neuromotor function compared with controls [8]: improved | Adverse drug effects ([9]; 3 to 70 weeks): No adverse drug effects were noted | Lower limb pain ([9]; initial dose 10 mg daily, nine individuals): complete or subjectively significant resolution of lower limb pain

benzalkonium chloride [BAC]
Damage to the nasal mucosa (nasal mucosa): no significant damage | Mucosal ciliary clearance after application (nasal mucosa): slight prolongation | Nasal mucosal function (nasal mucosa): no detectable effect | Saccharine transport time or indicators of proinflammatory effects (nasal mucosa): did not alter | Ciliotoxicity (isolated nasal cilia): ciliotoxic
